Assay results reported in PubChem BioAssay (NCI).
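The compound was tested at five concentrations on cells cultured in 96-well plates, with a 48-hour exposure period. At the TGI there is no net growth.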

Columns and labels:
Assay in all cases: growth of human tumour cells (NCI), 48 h
[1] = test system: DMS 114 small cell lung
[2] = test system: RXF-631 renal
[3] = test system: UACC-62 melanoma
[4] = test system: KM12 colon
[5] = test system: NCI-H460 lung
[6] = test system: LOX IMVI melanoma
[7] = test system: SK-OV-3 ovarian
[8] = test system: OVCAR-5 ovarian
[9] = test system: EKVX NSCLC
[10] = test system: SN12C renal
[11] = test system: TK-10 renal
[12] = test system: ACHN renal
[13] = test system: NCI-H23 lung
[14] = test system: U251 CNS
[15] = test system: SW-620 colon
[16] = test system: CCRF-CEM leukemia
[17] = test system: HOP-62 NSCLC
[18] = test system: A549 NSCLC
[19] = test system: MOLT-4 leukemia
[20] = test system: M19-MEL melanoma
[21] = test system: SF-268 CNS
[22] = test system: SNB-78 CNS
[23] = test system: HT29 colon
[24] = test system: SNB-75 CNS
[25] = test system: UACC-257 melanoma
[26] = test system: SNB-19 CNS
[27] = test system: KM20L2 colon
[28] = test system: HCC-2998 colon
[29] = test system: A498 renal
[30] = test system: HL-60(TB) leukemia
[31] = test system: SK-MEL-5 melanoma
[32] = test system: OVCAR-4 ovarian
[33] = test system: HCT-15 colon
[34] = test system: DLD-1 colon
[35] = test system: K-562 leukemia
[36] = test system: RXF 393 renal
[37] = test system: SF-539 CNS
[38] = test system: SK-MEL-28 melanoma
[39] = test system: MALME-3M melanoma
[40] = test system: COLO 205 colon
[41] = test system: LXFL 529 NSCLC
[42] = test system: OVCAR-3 ovarian
[43] = test system: HOP-18 NSCLC
[44] = test system: HCT-116 colon
[45] = test system: UO-31 renal
[46] = test system: OVCAR-8 ovarian
[47] = test system: IGROV1 ovarian
[48] = test system: NCI-H522 lung
[49] = test system: M14 melanoma
[50] = test system: 786-0 renal
[51] = test system: DMS 273 small cell lung
[52] = test system: SR leukemia
[53] = test system: SK-MEL-2 melanoma
[54] = test system: XF 498 CNS
[55] = test system: SF-295 CNS
[56] = test system: CAKI-1 renal
[57] = test system: RPMI-8226 leukemia
[58] = test system: HOP-92 NSCLC
[59] = test system: NCI-H226 lung

Measured: TGI

O=C(O)Cn1c(=O)[nH]c(=O)c2[nH]cnc21
not listed: [54] | [55] | [56] | [57] | [58] | [59]
> 100 µM: all other assays above

Cc1ccccc1NC(=O)CC(=O)N1N=C(N2c3ccccc3Sc3ccccc32)CC1c1ccccc1 (centres undefined)
not listed: [16] | [30] | [35] | [36] | [43] | [48] | [50] | [53]
> 100 µM: all other assays above
